# Entries after “also recorded” stand apart in the source; their conditions may differ.
# System: diseased human lung fibroblasts (DHLF)
# Experiment: Fibrosis-related gene expression (Bio-rad Prime PCR Fibrosis gene panel) in human lung fibroblasts treated for two days with a laforin inhibitor
# Assay type: cell-based
# Details: NHLF or DHLF derived from idiopathic pulmonary fibrosis patients; treated two days vs vehicle control; mRNA; n=3 samples per condition; FIG. 14
# Method: Normal human lung fibroblasts (NHLF) or diseased human lung fibroblasts (DHLF) derived from idiopathic pulmonary fibrosis patients were treated for two days with a laforin inhibitor (or vehicle control) before harvesting mRNA and assessing gene expression. Samples were run on Bio-rad Prime PCR Fibrosis gene panel plates with n=3 samples per condition. *p<0.05, ***p<0.001 two-tailed student's t-test.
# Normal human lung fibroblasts (NHLF) or diseased human lung fibroblasts (DHLF) derived from idiopathic pulmonary fibrosis patients were treated for two days with a laforin inhibitor (or vehicle control). […] Following treatment, mRNA was harvested from the cells and gene expression was assessed.
structure (smiles),measurement,value
O=C(Nc1ccc(OCc2ccccc2)c(Cl)c1)C(=O)Nc1ccccc1NC(=O)C(c1ccccc1)S(=O)(=O)O (stereo not shown) [L319-21-M50],fibrosis-related gene expression,disease-specific expression patterns being rescued by laforin inhibition; also recorded: decreases fibrosis-related gene expression in diseased human lung fibroblasts

# — patent US20240325326A1, “METHOD OF TREATING PULMONARY FIBROSIS BY TARGETING GLYCOGEN UTILIZATION” (University of Kentucky Research Foundation, priority 2023, published 2024)
